Measured values: patent publication US20260001871A1, “TRIAZOLE DERIVATIVES AS MODULATORS OF MAS-RELATED G-PROTEIN RECEPTOR D” (ESCIENT PHARMACEUTICALS, INC., priority 2022, published 2026)

Target: human MRGPRD (Homo sapiens, UniProt Q8TDS7)
Assay: MRGPRD antagonist activity, IP-One HTRF assay in CHO cells stably expressing human MRGPRD (versus 100 μM β-Alanine agonist)
Type: cell-based
Outline: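 IP-1 HTRF read-out, with IC50 from HTRF ratio curves and percent antagonism relative to maximal efficacy (mean, SEM). Antagonists and agonist were co-incubated 1 h at 37 °C plus 1 h at room temperature on overnight-plated MRGPRD-CHO cells in LiCl-containing Tris buffer, pH 8.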

Chain of human MRGPRD (Q8TDS7 whole entry): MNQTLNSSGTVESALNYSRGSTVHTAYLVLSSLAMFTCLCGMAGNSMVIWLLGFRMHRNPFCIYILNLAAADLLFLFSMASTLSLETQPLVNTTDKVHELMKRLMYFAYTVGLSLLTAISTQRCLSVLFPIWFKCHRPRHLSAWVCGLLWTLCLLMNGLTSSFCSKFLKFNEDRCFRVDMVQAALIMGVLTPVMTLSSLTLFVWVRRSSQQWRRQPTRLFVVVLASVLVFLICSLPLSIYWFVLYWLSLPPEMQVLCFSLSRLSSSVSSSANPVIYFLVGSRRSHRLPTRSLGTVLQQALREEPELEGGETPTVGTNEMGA

In the case of `Cc1cc(NC(=O)c2nnn(-c3ccc(-c4c(C)nn(C)c4C)cc3)c2C(C)C)ccn1` [Compound 10-10], the IC50 is reported as < 100 nM.

`COc1cc(C#N)ccc1-c1ccc(-n2nnc(C(=O)NCc3ccc(C)nc3)c2C2CC2)cc1` [Compound 7-48] was tested, and the IC50 was 100 to 500 nM.

Molecule `COc1cc(C#N)ccc1-c1ccc(-n2nnc(C(=O)Nc3ccncc3)c2C2CC2)cc1` [Compound 7-24] has an IC50 of 100 to 500 nM.

`Cc1n[nH]c2ncnc(NC(=O)c3nnn(C4CC=C(c5ccc(C#N)cc5)CC4)c3C3CC3)c12` (centres unmarked) [Compound 12-2] gave an IC50 of 100 to 500 nM.

In the case of `COc1cc(-c2c(C)nn(C)c2C)ccc1-n1nnc(C(=O)NCc2ccc(C)nc2)c1C1CC1` [Compound 21-2], the IC50 is reported as 100 to 500 nM.

For `Cc1ccc(CNC(=O)c2nnn(-c3ccc(-c4c(C)nn5ccccc45)cc3)c2C2CC2)cn1` [Compound 17-1], the IC50 was 100 to 500 nM.

`Cc1nn(-c2ccccc2)c(C)c1-c1ccc(-n2nnc(C(=O)Nc3ccc(NS(C)(=O)=O)cc3)c2C2CC2)cc1` [Compound 9-27] was tested, and the IC50 was 500 to 1000 nM.

For `O=C(Nc1ccncc1)c1nnn(-c2ccc(C3=CCOCC3)cc2)c1C1CC1` [Compound 7-114], the IC50 was 500 to 1000 nM.

Molecule `O=C(NCCc1c[nH]cn1)c1nnn(-c2ccc(-c3ccccc3)cc2)c1C1CC1` [Compound 14-42] has an IC50 of 1000 to 3000 nM.

In the case of `O=C(Nc1ccncc1)c1nnn(-c2ccc(-c3n[nH]c4ncccc34)cc2)c1C1CC1` [Compound 7-99], the IC50 is reported as 100 to 500 nM.

Molecule `Cc1cc(NC(=O)c2nnn(-c3cccc(-c4ccn(C5CC5)n4)c3)c2C2CC2)ccn1` [Compound 7-233] has an IC50 of 100 to 500 nM.

With `O=C(O)c1cccc(-c2ccc(-n3nnc(C(=O)Nc4ccncc4)c3C3CC3)cc2)c1` [Compound 7-213] the IC50 was > 3000 nM.

`CCn1cc(CNC(=O)c2nnn(-c3ccc(-c4cccc(CC#N)c4)cc3)c2C2CC2)cn1` [Compound 16-5] showed an IC50 of 100 to 500 nM.

`Cc1nn(C)c(C)c1-c1ccc(-n2nnc(C(=O)Nc3cccnc3)c2C(C)C)cc1` [Compound 17-29] was tested, and the IC50 was 500 to 1000 nM.

With `O=C(Nc1ccncc1)c1nnn(-c2cc3ccccc3o2)c1C1CC1` [Compound 4-1] the IC50 was > 3000 nM.

`COc1ccc(C2(NC(=O)c3nnn(-c4ccc(-c5ccc(C#N)cc5)cc4)c3C3CC3)CC2)cn1` [Compound 17-6] gave an IC50 of 100 to 500 nM.

`Cc1cc(NC(=O)c2nnn(-c3ccc(-c4c(C)nn(-c5ccccc5)c4C)cc3F)c2C2CC2)ccn1` [Compound 7-223] was tested, and the IC50 was < 100 nM.

With `CC(C)(C)n1cc(NC(=O)c2nnn(-c3ccc(-c4ccccc4)cc3)c2C2CC2)cn1` [Compound 14-2] the IC50 was > 3000 nM.

Molecule `CS(=O)(=O)c1cccc(-c2ccc(-n3nnc(C(=O)Nc4ccncc4)c3C3CC3)cc2)c1` [Compound 7-71] has an IC50 of 100 to 500 nM.

`Cc1ncccc1CNC(=O)c1nnn(-c2ccc(-c3ccc(CC#N)cc3)cc2)c1C1CC1` [Compound 16-2] gave an IC50 of 100 to 500 nM.

`CC(C)c1c(C(=O)NC2(c3cccnc3)CC2)nnn1-c1ccc(-c2ccc(C#N)cc2)cc1` [Compound 17-32] gave an IC50 of 1000 to 3000 nM.

Molecule `O=C(Nc1ccncc1)c1nnn(-c2ccc(O)cc2)c1C1CC1` [Compound 4-5] has an IC50 of 1000 to 3000 nM.

`N#Cc1cc(NC(=O)c2nnn(-c3ccc(-c4ccccc4)cc3)c2C2CC2)ccn1` [Compound 14-26] was tested, and the IC50 was 500 to 1000 nM.

Molecule `COc1ncc(-c2ccc(-n3nnc(C(=O)Nc4ccncc4)c3C3CC3)cc2)cn1` [Compound 7-194] has an IC50 of 1000 to 3000 nM.

`O=C(Nc1ccncc1)c1nnn(-c2ccc(-c3ccccc3)cc2Cl)c1C1CC1` [Compound 4-13] gave an IC50 of 500 to 1000 nM.

`Cc1c(-c2ccc(-n3nnc(C(=O)Nc4ccncc4)c3C3CC3)cc2)c(C(F)(F)F)nn1C` [Compound 7-47] showed an IC50 of 100 to 500 nM.

With `Cc1cc(NC(=O)c2nnn(-c3ccc(-c4cnn(Cc5ccccc5)c4)cc3)c2C2CC2)ccn1` [Compound 7-19] the IC50 was < 100 nM.

For `O=C(NCC1CCCO1)c1nnn(-c2ccc(-c3ccccc3)cc2)c1C1CC1` (centres unmarked) [Compound 14-7], the IC50 was > 3000 nM.

`CC1(NC(=O)c2nnn(-c3ccc(-c4ccccc4)cc3)c2C2CC2)CCOCC1` [Compound 14-74] was tested, and the IC50 was > 3000 nM.

`N#Cc1ccc(-c2ccc(-n3nnc(C(=O)NC4(c5cccnc5)CC4)c3C3CC3)cc2)cn1` [Compound 18-8] showed an IC50 of 1000 to 3000 nM.

For `O=C(NCCc1ncn[nH]1)c1nnn(-c2ccc(-c3ccccc3)cc2)c1C1CC1` [Compound 14-9], the IC50 was > 3000 nM.

For `CC(NC(=O)c1nnn(-c2ccc(-c3ccc(C#N)cc3)cc2)c1C1CC1)c1ccn(C)n1` (centres unmarked) [Compound 15-10], the IC50 was > 3000 nM.

`CCc1ccc(-n2nnc(C(=O)Nc3ccncc3)c2C2CC2)cc1-c1cnn(C(C)C)c1` [Compound 7-304] gave an IC50 of 1000 to 3000 nM.

With `Cc1c[nH]nc1-c1ccc(-n2nnc(C(=O)Nc3ccncc3)c2C2CC2)cc1` [Compound 7-119] the IC50 was 500 to 1000 nM.

Molecule `Cc1cc(NC(=O)c2nnn(-c3ccc(-c4ccc(C#N)cc4)c(F)c3)c2C2CC2)ccn1` [Compound 7-235] has an IC50 of 100 to 500 nM.

`Cc1cc(NC(=O)c2nnn(-c3ccc(-c4ccc(F)cc4)cc3)c2C2CC2)ccn1` [Compound 7-81] was tested, and the IC50 was 100 to 500 nM.

`Cc1cc(NC(=O)c2nnn(-c3cccc(-c4c(C)nn(C)c4C)c3)c2C2CC2)ccn1` [Compound 7-291] was tested, and the IC50 was 1000 to 3000 nM.

`COc1cccc(-c2ccc(-n3nnc(C(=O)Nc4ccncc4)c3C3CC3)cc2)c1` [Compound 7-153] showed an IC50 of 500 to 1000 nM.

Work on `Cc1ccncc1CNC(=O)c1nnn(-c2ccc(-c3c(C)nn(-c4ccccc4)c3C)cc2)c1C1CC1` [Compound 9-26] yielded an IC50 of 500 to 1000 nM.

`O=C(Nc1ccncc1)c1nnn(-c2ccc(-c3cscn3)cc2)c1C1CC1` [Compound 7-176] was tested, and the IC50 was 1000 to 3000 nM.

Work on `Cc1cc(-c2ccc(-n3nnc(C(=O)Nc4ccncc4)c3C3CC3)cc2)ccc1C#N` [Compound 7-60] yielded an IC50 of 100 to 500 nM.

For `O=C(Nc1ccncc1)c1nnn(-c2ccc(-c3ccns3)cc2)c1C1CC1` [Compound 7-125], the IC50 was 500 to 1000 nM.

For `O=C(Nc1ccncc1)c1nnn(-c2ncc(-c3ccccc3)s2)c1C1CC1` [Compound 5-2], the IC50 was > 3000 nM.

In the case of `O=C(Nc1ccncc1)c1nnn(-c2ccc(-c3cccc(O)c3)cc2)c1C1CC1` [Compound 7-170], the IC50 is reported as 1000 to 3000 nM.

In the case of `CC(C)n1cc(-c2cccc(-n3nnc(C(=O)Nc4ccncc4)c3C3CC3)c2)cn1` [Compound 7-251], the IC50 is reported as 500 to 1000 nM.

With `Cc1oncc1-c1ccc(-n2nnc(C(=O)Nc3ccncc3)c2C2CC2)cc1` [Compound 7-45] the IC50 was 100 to 500 nM.

Work on `O=C(Nc1ccncc1)c1nnn(-c2ccc(-c3nccs3)cc2)c1C1CC1` [Compound 7-177] yielded an IC50 of 1000 to 3000 nM.

With `Cn1ncc(C#N)c1-c1ccc(-n2nnc(C(=O)Nc3ccncc3)c2C2CC2)cc1` [Compound 7-188] the IC50 was 1000 to 3000 nM.

`O=C(Nc1ccncc1)c1nnn(-c2ccc(-c3n[nH]c4cnccc34)cc2)c1C1CC1` [Compound 7-165] gave an IC50 of 1000 to 3000 nM.

With `COc1cccc(C)c1NC(=O)c1nnn(-c2ccc(-c3ccccc3)cc2)c1C1CC1` [Compound 14-62] the IC50 was 1000 to 3000 nM.

For `CC(=O)c1ccc(-c2ccc(-n3nnc(C(=O)Nc4ccncc4)c3C3CC3)cc2)c(C)c1` [Compound 7-42], the IC50 was 100 to 500 nM.

`Cn1ncc2c1CN(C(=O)c1nnn(-c3ccc(-c4ccccc4)cc3)c1C1CC1)C2` [Compound 14-17] showed an IC50 of 100 to 500 nM.

In the case of `CC(C)(C)n1cc(-c2cccc(-n3nnc(C(=O)Nc4ccncc4)c3C3CC3)c2)cn1` [Compound 7-288], the IC50 is reported as 1000 to 3000 nM.

Work on `COc1ccc(C2(NC(=O)c3nnn(-c4ccc(-c5ccc(C#N)cc5C)cc4)c3C3CC3)CC2)cn1` [Compound 9-24] yielded an IC50 of 100 to 500 nM.

Molecule `O=C(Nc1ccncc1)c1nnn(-c2cccc(-c3cccc(F)c3)c2)c1C1CC1` [Compound 7-308] has an IC50 of 1000 to 3000 nM.

Work on `CC(=O)c1ccc(-c2ccc(-n3nnc(C(=O)Nc4ccncc4)c3C3CC3)cc2)cc1` [Compound 7-49] yielded an IC50 of 100 to 500 nM.

`Cc1ccc(-n2nnc(C(=O)Nc3ccncc3)c2C2CC2)c(F)c1` [Compound 2-2] was tested, and the IC50 was 500 to 1000 nM.

In the case of `Cc1n[nH]c2ncnc(NC(=O)c3nnn(-c4ccc(-c5ccccc5)cc4)c3C3CC3)c12` [Compound 14-25], the IC50 is reported as 500 to 1000 nM.

For `Cc1cc(NC(=O)c2nnn(-c3ccc(-c4c(C)nn(-c5ccccc5)c4C)cc3)c2C2CC2)ccn1` [Compound 10-1, 5-cyclopropyl-1-(4-(3,5-dimethyl-1-phenyl-1H-pyrazol-4-yl)phenyl)-N-(2-methylpyridin-4-yl)-1H-1,2,3-triazole-4-carboxamide], the IC50 was < 100 nM.

`COc1ccc(C2(NC(=O)c3nnn(-c4ccc(-c5ccccc5)cc4)c3C(C)C)CC2)cn1` [Compound 18-28] was tested, and the IC50 was 1000 to 3000 nM.

`O=C(Nc1ccncc1)c1nnn(-c2ccc(-c3ccc(CC4CC4)cc3)cc2)c1C1CC1` [Compound 7-149] gave an IC50 of 500 to 1000 nM.

`Cc1cc(NC(=O)c2nnn(C3CC=C(c4ccc(F)cc4)CC3)c2C2CC2)ccn1` (centres unmarked) [Compound 12-4] was tested, and the IC50 was 500 to 1000 nM.

Molecule `CC(C)(C)c1cccc(-c2ccc(-n3nnc(C(=O)Nc4ccncc4)c3C3CC3)cc2)c1` [Compound 7-201] has an IC50 of 1000 to 3000 nM.

Work on `CCn1cc(CNC(=O)c2nnn(-c3ccc(-c4ccc(C#N)cc4)cc3)c2C2CC2)cn1` [Compound 17-4] yielded an IC50 of 100 to 500 nM.

With `Cc1ccc(CNC(=O)c2nnn(-c3ccc(-c4c(C)nn5cccnc45)cc3)c2C2CC2)cn1` [Compound 10-5] the IC50 was 100 to 500 nM.

In the case of `Cc1nn(C)c(C)c1-c1ccc(-n2nnc(C(=O)Nc3ccncc3)c2C2CC2)c(C#N)c1` [Compound 7-267], the IC50 is reported as 500 to 1000 nM.

`CCn1nc(C)c(-c2ccc(-n3nnc(C(=O)Nc4ccc(NS(C)(=O)=O)cc4)c3C3CC3)cc2)c1C` [Compound 9-28] showed an IC50 of 500 to 1000 nM.

`O=C(Nc1ccncc1)c1nnn(-c2cccc(-c3cccc(O)c3)c2)c1C1CC1` [Compound 7-299] gave an IC50 of 1000 to 3000 nM.

Molecule `N#CCc1ccc(-c2cccc(-n3nnc(C(=O)Nc4ccncc4)c3C3CC3)c2)cc1` [Compound 7-273] has an IC50 of 500 to 1000 nM.

`NC(=O)c1ccc(-c2ccc(-n3nnc(C(=O)NC4(c5cccnc5)CC4)c3C3CC3)cc2)cc1` [Compound 18-4] was tested, and the IC50 was 1000 to 3000 nM.

Work on `Cc1nn2cccnc2c1-c1ccc(-n2nnc(C(=O)Nc3ccc(NS(C)(=O)=O)cc3)c2C2CC2)cc1` [Compound 10-7] yielded an IC50 of 1000 to 3000 nM.

`CC[C@H](NC(=O)c1nnn(-c2ccc(-c3ccccc3)cc2)c1C1CC1)c1ccccc1` [Compound 14-37] was tested, and the IC50 was 1000 to 3000 nM.

`N#CCc1cccc(-c2ccc(-n3nnc(C(=O)Nc4ccncc4)c3C3CC3)cc2)c1` [Compound 7-30] gave an IC50 of 100 to 500 nM.

In the case of `Cc1cc(NC(=O)c2nnn(-c3ccc(-c4c(C)nn5ccccc45)cc3)c2C2CC2)ccn1` [Compound 8-1], the IC50 is reported as < 100 nM.
